Assays:
IL-8 = IL-8 gene expression in HaCaT after UVB radiation (q-PCR); format: cell-based, human; conditions: UVB 80 mJ/cm^2, 24 hrs, dose-dependent
Excerpt: (§1) In the following Test Examples 6-1 and 6-2, using immortalized keratinocytes (HaCaT) and UVB to establish a model, after the compound to be test was applied to HaCaT, the expression levels of TNF-α, IL-8, IL-1β and EP2 were detected; using immortalized keratinocytes (HaCaT) and capsaicin to establish a model, after the compound to be test was applied to HaCaT, the expression level of TRPV1 was detected, so as to evaluate the soothing effect of the test substance from multiple dimensions.
(§2) • 1) Cell inoculation: HaCaT cells were inoculated into a 6-well plate at 6×10^5/well, cultured in an incubator (37°C, 5% CO2) for 12 hrs, and a normal control group (0 mJ/cm^2 + vehicle control), a model control group (80 mJ/cm^2 + vehicle control), a low concentration group (80 mJ/cm^2 + low concentration compound), a medium concentration group (80 mJ/cm^2 + medium concentration compound), and a high concentration group (80 mJ/cm^2 + high concentration compounds) were respectively provided. • 2) UVB modeling: The HaCaT cells were washed 3 times with D'Hanks before UVB radiation, 1 mL of D'Hanks was added into the wells, to make the cells to be immersed, and the control group was coated with tinfoil and placed in the dark. […]

COL4A1 = assay: Collagen IV gene expression in HaCaT human immortalized keratinocytes; format: cell-based; conditions: 24 hrs, dose-dependent
Excerpt: (§3) Skin fragility is partly attributed to changes in hemidesmosomes and the expression downregulation of various collagen proteins (Collagen I, III, IV, VII) or laminins (such as LN-5) at the dermal-epidermal junction. LN-5 has been proven to be a component of anchoring fibers in the basement membrane of the skin, cornea, conjunctiva, and other tissues. LN-5 participates in cell-cell interactions through the mediation of integrins and proteoglycans, thereby playing a crucial role in cell adhesion, growth, migration, and differentiation. The appearance of wrinkles is closely related to the normal synthesis and expression of collagen and laminins. Therefore, the increase of the above collagen content and LN-5 can achieve a certain role in resisting wrinkles, and plays an important role in the aging process of the skin. Therefore, the anti-wrinkle effect of the compound to be tested was evaluated by detecting the level of Collage I protein of […] by ELISA, and detecting the transcription levels of epidermal cells (keratinocytes) III, IV, VII and LN -5 by Real-Time PCR. The following Test Examples 8-1 and 8-2 evaluated the anti-wrinkle efficacy of compounds using HaCaT human immortalized keratinocytes and HSF human skin fibroblasts. […]

TNF-α = TNF-α gene expression in HaCaT after UVB radiation (q-PCR); format: cell-based, human; conditions: UVB 80 mJ/cm^2, 24 hrs, dose-dependent
Excerpt: as §1, §2

β-galactosidase = assay: Zebrafish oxidative aging model (menadione), β-galactosidase activity; format: in vivo; conditions: I-8 at 22.2 µg/mL, 22 hrs, 4 µM menadione; compared with the modeling group, statistical significance
Experimental: (§4) Experimental animal: Healthy wild-type AB strain zebrafish at 48 hpf (hours post-fertilization)
(§5) Healthy AB strain zebrafish were taken as experimental animal. A zebrafish oxidative aging model was constructed using chemical mutagenesis with 4 µM menadione as the modeling drug. Fucoxanthin was used as a positive control compound. After treating the zebrafish oxidative aging model with different concentrations of I-8 for 22 hrs, changes in the reactive oxygen species (ROS) content, β-galactosidase activity, and the expression of three antioxidant and anti-aging related genes (Cu/Zn-sod, Mn-sod, and ampk) were respectively detected and statistically analyzed.
(§6) During the experiment, the modeling drug, positive compound, and I-8 were dispersed together in the culture water of zebrafish. […] Cell ROX™ Deep Red fluorescent probes and β-galactosidase staining kits were used to specifically label ROS and β-galactosidase in the fish, respectively, and the staining intensity was quantified using Image-Pro Plus software. After extracting RNA from the whole fish, the expression changes of three genes (Cu/Zn-sod, Mn-sod, and ampk) in the fish were detected at the mRNA level using Quantitative Real-time PCR (RT-qPCR). The data were statistically analyzed using GraphPad software.

[1] = test system: reactive oxygen species (ROS); assay: Zebrafish oxidative aging model (menadione), ROS content; format: in vivo; conditions: I-8 at 22.2 µg/mL, 22 hrs, 4 µM menadione; compared with the modeling group, statistical significance
Experimental: as §4, §5, §6

type I collagen = assay: Type I collagen expression in HSF human skin fibroblasts (ELISA); format: cell-based; conditions: 24 hrs, dose-dependent
Excerpt: as §3

IL-1β = IL-1β gene expression in HaCaT after UVB radiation (q-PCR); format: cell-based, human; conditions: UVB 80 mJ/cm^2, 24 hrs, dose-dependent
Excerpt: as §1, §2

O=S1(=O)Oc2cc(O)ccc2-c2ccc(O)cc21 [Compound I-8]
expression level of IL-8 (IL-8): downregulating | COL4A1 gene expression (COL4A1): upregulate | expression level of TNF-α (TNF-α): downregulating | β-galactosidase activity (β-galactosidase): downregulated | ROS content [1]: downregulated | secretion of type I collagen (type I collagen): improving the secretion of type I collagen | expression level of IL-1β (IL-1β): downregulating

— patent EP4803511A1, “SMALL MOLECULE COMPOUND HAVING SULFONIC ACID OR SULFINIC ACID LACTONE STRUCTURE, COMPOSITION AND USE THEREOF” (Hangzhou Phecdamed Co., Ltd., priority 2023, dated 2025)
